Source: publication PMC5289073, “Stable expression and functional characterisation of the diamondback moth ryanodine receptor G4946E variant conferring resistance to diamide insecticides” (Scientific Reports, 2015)
Where two headings read alike, the source gives them in different places.

Experiments:
P. xylostella WT RyR [1] = target: T1, P. xylostella WT RyR (Plutella xylostella, UniProt K7W8M2); experiment: Calcium fluorescence (Fluo8, FLIPR Tetra), Sf9 cells stably expressing wild-type RyR (Sf9-wtRyR); assay type: cell-based; conditions: for Intracellular calcium signal over time (Fluo8): caffeine 30 mM, flubendiamide-sulfoxide 1 μM, chlorantraniliprole 1 μM
Protocol: Single Sf9 cell clones stably expressing either the wild-type (Sf9-wtRyR) or the G4946E (Sf9-mRyR) RyR channel were isolated after a few cycles of clonal selection. […] This may be explained by compensatory calcium re-uptake mechanisms of the sarco-/endoplasmic reticulum, in particular the Ca^2+-ATPase (SERCA)[32][33].
Fluorescence of the calcium-Fluo8 complex was measured as a function of time.
Measurements of the integrated calcium signals as a function of the diamide concentration, gave characteristic dose-response curves, from which apparent EC50 concentrations for flubendiamide-sulfoxide and chlorantraniliprole were calculated (Fig. 6). These values represent the effector concentration causing half-maximal integrated calcium signals in the cells. […] It should be noted that the EC50 values are not only determined by the compound’s affinities to the RyR, but also by their availability at the intracellular target site as influenced by their physico-chemical properties.
(§1) Figure 6 Calcium transients in Sf9 cells stably expressing either the P. xylostella WT (●) or the modified (G4946E) RyR (▲) as a function of the diamide concentration. Calcium-dye (Fluo8) fluorescence was measured after (a) flubendiamide-sulfoxide or (b) chlorantraniliprole application as a function of time. The integrated fluorescence signals were plotted against the logarithm of the effector concentration. Data fitting and EC50 calculations were performed with the SigmaPlot v13 software package.
(§2) Cells were transfected as described above and subjected to selection with 300 μg ml^−1 zeocin by the dilution method, essentially as described in the manufacturer´s manual (Invitrogen). After a few successive rounds of clonal selection, zeocin-resistant cell clones were tested for functional RyR expression by calcium fluorescence measurements.
(§3) Calcium-dye fluorescence was measured with Fluo8-loaded cells on the FLIPR Tetra instrument (Molecular Devices) in the 384 microtiter plate format. 1.5 × 10[4] cells per well were treated with variable concentrations of effector compounds in a total volume of 80 μl Tyrode´s buffer containing 0.1% DMSO (final concentration) essentially following the established protocols provided with the Fluo8 No-Wash calcium assay kit (Molecular Devices). Excitation and emission wavelengths were set at 490 nm and 525 nm, respectively.

P. xylostella G4946E RyR [2] = target: T2, P. xylostella G4946E RyR (Plutella xylostella, UniProt K7W8M2, G4900E); experiment: Calcium fluorescence (Fluo8, FLIPR Tetra), Sf9 cells stably expressing G4946E RyR (Sf9-mRyR); assay type: cell-based
Protocol: as §1
The efficacy of both diamides was reduced dramatically in the Sf9-mRyR cells expressing the G4946E RyR.
as §2, §3

Plutella xylostella = conditions: cited from earlier work; for Resistance compared to susceptible strains: larvae collected from the Philippines and Thailand in 2012
[3] = tested on: P. xylostella RyR (thoracic microsomal membranes); conditions: Philippine strain versus susceptible strain; cited from earlier work
Tuta absoluta = tested on: Tuta absoluta; parameters: method as in ref 39 = [39]; Roditakis E. et al. First report of Tuta absoluta resistance to diamide insecticides . J Pest Sci. 88 , 9 – 16 ( 2015 ).; conditions: T. absoluta population from Sicily (Italy), up; cited from earlier work
Adoxophyes honmai = tested on: Adoxophyes honmai; parameters: method as in ref 40 = [40]; Uchiyama T. & Ozawa A. Rapid development of resistance to diamide insecticides in the smaller tea tortrix, Adoxophyes honmai (Lepidoptera: Tortricidae), in the tea fields of Shizuoka Prefecture, Japan; conditions: cited from earlier work
[4] = tested on: P. xylostella ROTH WT RyR; experiment: Fura-2 AM calcium release, Sf9 cells transiently expressing ROTH WT RyR; assay type: cell-based, Plutella xylostella; conditions: 72 h post transfection, caffeine 30 mM, flubendiamide sulfoxide 30 μM, flubendiamide 10 μM
Protocol: (§4) Figure 3 Fluorescence ratios measured over time in a single calcium release experiment using Fura-2 AM in Sf9 cells transiently expressing (a) WT construct and (b) the G4946E variant 72 h post transfection.
(§5) Sf9 cells (Life technologies) were maintained in Sf-900 II SFM (Gibco-life technologies) serum free media without antibiotic in 30 ml suspension cultures (shaking at 115 rpm) at a constant temperature of 27 °C. Cells used for transfection were seeded into 60 mm cell culture dishes (Corning®), at 2 × 10[6] cells per dish in 3 ml of Sf-900 II SFM, and left to attach for 1 h. Cells were transfected using 3 μg of plasmid DNA, 15 μl Cellfectin II reagent (Life technologies) and 5 μl PLUS™ enhancer reagent (Life technologies) per dish, following the manufacturer’s protocol.
(§6) Fura 2-AM dye (Life technologies, CA, USA) was used for monitoring calcium release in Sf9 cells transfected with the P. xylostella RyR. Approximately 2.5 × 10^5 of un-transfected SF9 cells were allowed to attach to Poly-L-lysine coated coverslips (Sigma, MA, USA) for 1 h and then transfected using Cellfectin™ II. 24 h, 48 h, 72 h and 96 h post transfection the cells were loaded with […] of Fura 2-AM calcium sensitive dye. Cells were left to incubate at 27 °C for 45–60 minutes, followed by 3 washes with 500 μl of fresh un-supplemented Sf-900 II medium. […]

P. xylostella G4946E RyR [5] = target: T2, P. xylostella G4946E RyR; assay type: cell-based; conditions: 72 h post transfection, caffeine 30 mM, flubendiamide 10 μM
Protocol: as §4, §5, §6

P. xylostella WT RyR [6] = target: T1, P. xylostella WT RyR; experiment: [3H] ryanodine binding, membranes of Sf9 cells transiently expressing ROTH WT RyR
Protocol: (§7) Apparent differences in Kd and Bmax with those reported in other studies could likely be explained by the different experimental conditions.
(§8) Figure 4 Tritium labelled ryanodine binding from Sf9 membrane preparations expressing P. xylostella WT and G4946E RyRs.
(§9) For membrane preparation, transfected cells were harvested 48 h post transfection using phosphate buffered saline (PBS), the cells counted and then re-suspended in a hypo-osmotic buffer (20 mM Tris, 1 mM EDTA pH 7.4) at a concentration of 2 × 10[6] cells per ml. The cells were then homogenised and centrifuged at 1,500 g for 15 min at 4 °C to remove cell debris. The supernatant was removed, centrifuged at 100,000 g for 1 h at 4 °C and the membrane pellet re-suspended in a 0.4 M sucrose, 20 mM HEPES solution (20 μl per 2 × 10[6] cells). Protein concentration was determined using Bradford reagent (Bio-Rad) following the manufacturer’s instructions, against Bovine Serum Albumin (BSA) standards.
(§10) Binding reactions were set up in a 96 well flat bottom microtiter plate in a total volume of 250 μl per well. […]

P. xylostella G4946E RyR [7] = target: T2, P. xylostella G4946E RyR; experiment: [3H] ryanodine binding, membranes of Sf9 cells transiently expressing G4946E RyR
Protocol: as §7, §8, §9, §10

[8] = target: rabbit skeletal muscle RyR; parameters: method as in PMID 11220363; conditions: native preparation of rabbit skeletal muscle RyR; cited from earlier work
H. virescens RyR = conditions: cited from earlier work

SMILES	Intracellular calcium signal over time (Fluo8) (P. xylostella WT RyR [1]; Sf9-wtRyR)	Resistance compared to susceptible strains (Plutella xylostella)	Resistance ratio of EC50 for ryanodine binding stimulation [3]	Resistance level (Tuta absoluta)	Resistance ratio (Adoxophyes honmai)	Calcium release response (Fura-2 fluorescence ratio) [4]	Calcium release response (Fura-2 fluorescence ratio) (P. xylostella G4946E RyR [5])	other results
Cn1c(=O)c2c(ncn2C)n(C)c1=O [caffeine]	increased rapidly to the maximum in less than one minute after application and then decreased to baseline levels							
CNC(=O)c1cc(Cl)cc(C)c1NC(=O)c1cc(Br)nn1-c1ncccc1Cl [chlorantraniliprole]	increased intracellular calcium concentrations that persisted	over 200 fold	159 fold	up to 2,414 fold	77.2 fold			EC50 (P. xylostella WT RyR [1]): 0.017 µM; EC50 (P. xylostella G4946E RyR [2]): 3.72 µM; Loss of effect on the RyR channel with G4946E substitution versus WT (P. xylostella G4946E RyR [2]; G4946E versus WT, from EC50 values): roughly two orders of magnitude; Resistance (Plutella xylostella; field populations from China with G4946E): 303–658 fold
Cc1cc(C(F)(C(F)(F)F)C(F)(F)F)ccc1NC(=O)c1cccc(I)c1C(=O)NC(C)(C)C[S+](C)[O-] (centres unmarked) [flubendiamide sulfoxide]	increased intracellular calcium concentrations that persisted					reversible activation of the calcium release	failed to induce any release of calcium	EC50 (P. xylostella WT RyR [1]; Sf9-wtRyR, stable WT RyR, Fluo8, ± standard error printed, read-out: EC50 (half-maximal integrated calcium signal)): 0.245 µM; EC50 (P. xylostella G4946E RyR [2]; Sf9-mRyR, stable G4946E RyR, Fluo8, ± standard error printed, read-out: EC50 (half-maximal integrated calcium signal)): > 20 µM
Cc1cc(C(F)(C(F)(F)F)C(F)(F)F)ccc1NC(=O)c1cccc(I)c1C(=O)NC(C)(C)CS(C)(=O)=O [flubendiamide]		over 200 fold	> 450 fold	≤ 1,742 fold	105 fold	permanently increased Ca^2+ levels	did not show any calcium release	
CC(C)[C@@]1(O)[C@@H](OC(=O)c2ccc[nH]2)[C@@]2(O)[C@@]3(C)C[C@]4(O)O[C@@]5([C@H](O)[C@@H](C)CC[C@]35O)[C@@]2(O)[C@@]14C [ryanodine]								Kd (P. xylostella WT RyR [6]): 0.0129 ± 0.0045 µM; Kd (P. xylostella G4946E RyR [7]): 0.0147 ± 0.00418 µM; Kd [8]: 0.00204 ± 0.00012 µM; Kd (H. virescens RyR; H. virescens native membrane preparations, different study): 0.0139 ± 0.0038 µM; Kd (H. virescens RyR; native preparation of H. virescens RyR): 0.00382 ± 0.00039 µM
